Measurements taken from US20230103791A1 (GLAXOSMITHKLINE INTELLECTUAL PROPERTY DEVELOPMENT LIMITED, priority 2019, published 2023).
Where two headings read alike, the source gives them in different places.

Target: T1, human Nav1.8 (Homo sapiens, UniProt Q9Y5Y9)
T1 construct: expressed in transfected cells; host or cells: HEK293 (HEK293-Nav1.8)
Assay: Nav1.8 sodium channels assay, QPatch 48 HTX electrophysiology in HEK293-Nav1.8 cells
Format: cell-based
Outline: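 HEK293 cells co-expressing human Nav1.8, Navβ1 and TREK1 were voltage-clamped on QPatch 48 HTX. The V1/2 protocol ran at 0.07 Hz: hold −100 mV, 20 ms to 0 mV, 8 s at −46 mV, 20 ms at −100 mV, then 20 ms at 0 mV (P2). P2 current was fitted over 6-8 concentrations for IC50, with vehicle wells used to correct for run-down.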

[1] = at least one set of experimental runs, read-out: average pIC50 value against Nav1.8 (converted)

T1 sequence (Q9Y5Y9 whole entry): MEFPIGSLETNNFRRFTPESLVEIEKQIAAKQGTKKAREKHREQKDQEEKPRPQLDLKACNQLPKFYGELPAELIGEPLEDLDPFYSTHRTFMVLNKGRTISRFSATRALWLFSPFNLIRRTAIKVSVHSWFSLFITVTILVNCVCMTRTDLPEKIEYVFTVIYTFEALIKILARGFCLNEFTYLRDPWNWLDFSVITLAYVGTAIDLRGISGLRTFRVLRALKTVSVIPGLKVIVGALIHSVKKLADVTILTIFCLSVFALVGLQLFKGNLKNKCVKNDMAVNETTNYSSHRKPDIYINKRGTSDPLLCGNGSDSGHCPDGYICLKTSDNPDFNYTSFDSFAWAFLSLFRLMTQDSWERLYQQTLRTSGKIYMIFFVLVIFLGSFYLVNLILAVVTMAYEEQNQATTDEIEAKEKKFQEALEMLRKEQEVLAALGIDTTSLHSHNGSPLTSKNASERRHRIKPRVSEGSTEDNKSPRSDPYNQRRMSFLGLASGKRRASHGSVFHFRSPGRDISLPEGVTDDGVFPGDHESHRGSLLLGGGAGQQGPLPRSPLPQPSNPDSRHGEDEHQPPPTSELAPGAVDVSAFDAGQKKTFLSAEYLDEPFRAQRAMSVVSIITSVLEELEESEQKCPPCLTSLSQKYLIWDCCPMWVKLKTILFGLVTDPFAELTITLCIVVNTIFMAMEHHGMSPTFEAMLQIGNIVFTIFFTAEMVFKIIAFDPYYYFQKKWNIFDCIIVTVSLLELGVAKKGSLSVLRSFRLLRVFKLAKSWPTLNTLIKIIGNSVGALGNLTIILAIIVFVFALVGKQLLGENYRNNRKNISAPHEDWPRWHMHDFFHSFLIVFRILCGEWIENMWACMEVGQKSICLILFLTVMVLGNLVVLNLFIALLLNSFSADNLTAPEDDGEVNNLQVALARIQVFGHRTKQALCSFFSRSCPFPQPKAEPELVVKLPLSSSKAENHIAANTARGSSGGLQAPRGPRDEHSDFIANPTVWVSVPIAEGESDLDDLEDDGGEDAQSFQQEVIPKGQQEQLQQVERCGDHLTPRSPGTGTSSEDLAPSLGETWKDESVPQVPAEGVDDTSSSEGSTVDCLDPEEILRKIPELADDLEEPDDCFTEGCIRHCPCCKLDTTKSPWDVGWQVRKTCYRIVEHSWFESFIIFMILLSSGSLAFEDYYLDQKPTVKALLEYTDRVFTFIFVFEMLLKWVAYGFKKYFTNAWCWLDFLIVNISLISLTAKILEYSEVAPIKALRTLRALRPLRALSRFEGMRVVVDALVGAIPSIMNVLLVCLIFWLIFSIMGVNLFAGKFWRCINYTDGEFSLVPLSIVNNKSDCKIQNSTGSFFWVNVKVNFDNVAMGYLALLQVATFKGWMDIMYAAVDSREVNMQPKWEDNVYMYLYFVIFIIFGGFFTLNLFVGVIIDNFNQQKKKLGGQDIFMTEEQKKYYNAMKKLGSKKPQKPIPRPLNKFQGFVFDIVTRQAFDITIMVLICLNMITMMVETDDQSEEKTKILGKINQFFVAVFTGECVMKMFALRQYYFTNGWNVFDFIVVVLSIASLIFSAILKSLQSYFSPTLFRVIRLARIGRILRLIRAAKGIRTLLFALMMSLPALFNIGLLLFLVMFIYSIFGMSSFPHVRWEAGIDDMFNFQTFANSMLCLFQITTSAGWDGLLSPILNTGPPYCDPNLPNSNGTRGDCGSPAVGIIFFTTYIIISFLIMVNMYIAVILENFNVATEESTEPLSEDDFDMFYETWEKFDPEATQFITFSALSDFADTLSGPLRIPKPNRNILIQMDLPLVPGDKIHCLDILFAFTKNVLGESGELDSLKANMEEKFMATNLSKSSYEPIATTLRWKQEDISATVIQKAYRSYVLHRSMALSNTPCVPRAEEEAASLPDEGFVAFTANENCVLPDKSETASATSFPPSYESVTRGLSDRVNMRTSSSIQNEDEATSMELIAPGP
T1 sequence (Q07699 19-218 partner): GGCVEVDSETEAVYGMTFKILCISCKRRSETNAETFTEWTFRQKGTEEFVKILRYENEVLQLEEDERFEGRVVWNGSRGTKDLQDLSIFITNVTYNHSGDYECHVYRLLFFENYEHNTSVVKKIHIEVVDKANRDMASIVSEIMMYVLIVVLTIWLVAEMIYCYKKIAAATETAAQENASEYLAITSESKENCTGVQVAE

SMILES | IC50 [1] [nM] | IC50 (Table 1, HEK293-Nav1.8, QPatch 48 HTX, half inactivation state voltage protocol (V1/2), single run or average of two or more runs, read-out: Nav1.8 pIC50 (converted)) [nM]
CCc1cc(F)ccc1N1CN(c2ccncc2C)C(=O)c2cc(Cl)c(C#N)cc21 [Example 243, 6-chloro-1-(2-ethyl-4-fluorophenyl)-3-(3-methylpyridin-4-yl)-4-oxo-1,2,3,4-tetrahydroquin-azoline-7-carbonitrile] | 126 to 631 | 
CCc1cc(F)ccc1N1CN(c2cc[n+]([O-])cc2C)C(=O)c2cc(Cl)c(F)cc21 [Example 245, 4-(6-chloro-1-(2-ethyl-4-fluorophenyl)-7-fluoro-4-oxo-1,4-dihydroquinazolin-3(2H)-y1)-3-methylpyridine 1-oxide] | ≤ 100 | 
CCc1cc(F)ccc1N1CN(c2cc[n+]([O-])cc2C)C(=O)c2cc(Cl)c(C#N)cc21 [Example 247, 4-(6-chloro-7-cyano-1-(2-ethyl-4-fluorophenyl)-4-oxo-1,4-dihydroquinazolin-3(2H)-yl)-3-methylpyridine 1-oxide] | ≤ 100 | 
Cc1cc(F)ccc1N1CN(c2ccc(C(N)=O)[n+]([O-])c2)C(=O)c2c1ccc(Cl)c2F [Example 248, 2-carbamoyl-5-(6-chloro-5-fluoro-1-(4-fluoro-2-methylphenyl)-4-oxo-1,4-dihydroquinazolin-3(2H)-yl)pyridine 1-oxide] | 794 to 7940 | 
Cc1cc(F)ccc1N1CN(c2ccc[n+]([O-])c2)C(=O)c2cc(C(F)(F)F)ccc21 [Example 249, 3-(1-(4-fluoro-2-methylphenyl)-4-oxo-6-(trifluoromethyl)-1,4-dihydroquinazolin-3(2H)-yl)pyridine 1-oxide] | 794 to 7940 | 
Cc1c[n+]([O-])ccc1N1CN(c2ccc(F)cc2C)c2ccc(C(F)(F)F)cc2C1=O [Example 254, 4-(1-(4-fluoro-2-methylphenyl)-4-oxo-6-(trifluoromethyl)-1,4-dihydroquinazolin-3(2H)-yl)-3-methylpyridine 1-oxide] | 126 to 631 | 
Cc1cc(N2CN(c3ccc(F)cc3C)c3ccc(C(F)(F)F)cc3C2=O)c[n+]([O-])c1 [Example 255, 3-(1-(4-fluoro-2-methylphenyl)-4-oxo-6-(trifluoromethyl)-1,4-dihydroquinazolin-3(2H)-yl)-5-methylpyridine 1-oxide] | 794 to 7940 | 
Cc1cc(F)ccc1N1CN(c2ccc(=O)[nH]c2N)C(=O)c2cc(C(F)(F)F)ccc21 [Example 257, 3-(2-Amino-6-oxo-1,6-dihydropyridin-3-yl)-1-(4-fluoro-2-methylphenyl)-6-(trifluoromethyl)-2,3-dihydroquinazolin-4(1H)-one] | ≤ 100 | 
Cc1cc(F)ccc1N1CN(c2ccc(=O)[nH]c2C)C(=O)c2ccc(C3COC3)cc21 [Example 265, 1-(4-Fluoro-2-methylphenyl)-3-(2-methyl-6-oxo-1,6-dihydropyridin-3-yl)-7-(oxetan-3-yl)-2,3-dihydroquinazolin-4(1H)-one] | 126 to 631 | 
Cc1cc(O)ccc1N1CN(c2ccc(F)cc2C)c2ccc(C(F)(F)F)cc2C1=O [Example 266, 1-(4-Fluoro-2-methylphenyl)-3-(4-hydroxy-2-methylphenyl)-6-(trifluoromethyl)-2,3-dihydroquinazolin-4(1H)-one] | 794 to 7940 | 
Cc1cc(O)ccc1N1CN(c2ccc(F)cc2C)c2cc(C(F)(F)F)ccc2C1=O [Example 267, 1-(4-Fluoro-2-methylphenyl)-3-(4-hydroxy-2-methylphenyl)-7-(trifluoromethyl)-2,3-dihydroquinazolin-4(1H)-one] | 794 to 7940 | 
Cc1cc(F)ccc1N1CN(C2CNC(=O)NC2)C(=O)c2ccc(C(F)(F)F)cc21 [Example 270, 1-(4-fluoro-2-methylphenyl)-3-(2-oxohexahydro-pyrimidin-5-yl)-7-(trifluoromethyl)-2,3-dihydroquinazolin-4(1H)-one] | 126 to 631 | 
CC1=C(N2CN(c3ccc(F)cc3C)c3cc(C(F)(F)F)ccc3C2=O)CNC(=O)N1 [Example 271, 1-(4-fluoro-2-methylphenyl)-3-(6-methyl-2-oxo-1,2,3,4-tetrahydro-pyrimidin-5-yl)-7-(trifluoromethyl)-2,3-dihydroquinazolin-4(1H)-one] | ≤ 100 | 
Cc1cc(N)ncc1N1CN(c2ccc(F)cc2C)c2ccc(C(F)(F)F)cc2C1=O [Example 277, 3-(6-Amino-4-methylpyridin-3-yl)-1-(4-fluoro-2-methylphenyl)-6-(trifluoromethyl)-2,3-dihydroquinazolin-4(1H)-one] | 126 to 631 | 
Cc1[nH]c(=O)ccc1N1CN([C@@H]2CCCC[C@H]2C)c2cc(C(F)(F)F)ccc2C1=O [Example 280, 3-(2-Methyl-6-oxo-1,6-dihydropyridin-3-yl)-1-((1R,2R)-2-methylcyclohexyl)-7-(trifluoromethyl)-2,3-dihydroquinazolin-4(1H)-one] | 126 to 631 | 
Cc1[nH]c(=O)ccc1N1CN([C@@H]2CCOC[C@@H]2C)c2cc(C(F)(F)F)ccc2C1=O [Example 282, 3-(2-Methyl-6-oxo-1,6-dihydropyridin-3-yl)-1-((3R,4R)-3-methyltetrahydro-2H-pyran-4-yl)-7-(trifluoromethyl)-2,3-dihydroquinazolin-4(1H)-one] | 794 to 7940 | 
Cc1[nH]c(=O)ccc1N1CN([C@H]2CCOC[C@@H]2C)c2cc(C(F)(F)F)ccc2C1=O [Example 283, 3-(2-Methyl-6-oxo-1,6-dihydropyridin-3-yl)-1-((3R,4S)-3-methyltetrahydro-2H-pyran-4-yl)-7-(trifluoromethyl)-2,3-dihydroquinazolin-4(1H)-one] | 126 to 631 | 
Cc1[nH]c(=O)ccc1N1CN([C@@H]2CCOC[C@H]2C)c2cc(C(F)(F)F)ccc2C1=O [Example 284, 3-(2-Methyl-6-oxo-1,6-dihydropyridin-3-yl)-1-((3S,4R)-3-methyltetrahydro-2H-pyran-4-yl)-7-(trifluoromethyl)-2,3-dihydroquinazolin-4(1H)-one] | 794 to 7940 | 
Cc1cc(F)ccc1N1CN(c2ccc(=O)[nH]c2C)C(=O)c2cc(C(F)(F)F)ccc21 [Example 297, 1-(4-fluoro-2-methylphenyl)-3-(2-methyl-6-oxo-1,6-dihydropyridin-3-yl)-6-(trifluoromethyl)-2,3-dihydroquinazolin-4(1H)-one] | ≤ 100 | 
Cc1cc(OC(F)(F)F)ccc1N1CN(c2ccc(=O)[nH]c2C)C(=O)c2cc(C(F)(F)F)cnc21 [Example 298, 1-(2-methyl-4-(trifluoromethoxy)phenyl)-3-(2-methyl-6-oxo-1,6-dihydropyridin-3-yl)-6-(trifluoromethyl)-2,3-dihydropyrido[2,3-d]pyrimidin-4(1H)-one] | ≤ 100 | 
Cc1cc(F)ccc1N1CN(c2ccc(=O)[nH]c2C)C(=O)c2cc(C(F)(F)F)cnc21 [Example 299, 1-(4-fluoro-2-methylphenyl)-3-(2-methyl-6-oxo-1,6-dihydropyridin-3-yl)-6-(trifluoromethyl)-2,3-dihydropyrido[2,3-d]pyrimidin-4(1H)-one] | 126 to 631 | 
Cc1cc(F)ccc1N1CN(c2ccc(=O)[nH]c2)C(=O)c2ccc(C(F)(F)F)cc21 [drawing 261, 1-(4-fluoro-2-methylphenyl)-3-(6-oxo-1,6-dihydropyridin-3-yl)-7-(trifluoromethyl)-2,3-dihydroquinazolin-4(1H)-one] |  | 126

Second part, the molecule after the results:

IC50 [1] [nM] | IC50 (Table 1, HEK293-Nav1.8, QPatch 48 HTX, half inactivation state voltage protocol (V1/2), single run or average of two or more runs, read-out: Nav1.8 pIC50 (converted)) [nM] | SMILES
≤ 100 |  | Cc1c[n+]([O-])ccc1N1CN(c2ccc(F)cc2C)c2cc(C(F)F)c(Cl)cc2C1=O [Example 244, 4-(6-Chloro-7-(difluoromethyl)-1-(4-fluoro-2-methylphenyl)-4-oxo-1,4-dihydroquinazolin-3(2H)-yl)-3-methylpyridine 1-oxide]
≤ 100 |  | Cc1c[n+]([O-])ccc1N1CN(c2ccc(OC(F)(F)F)cc2C)c2cc(F)c(Cl)cc2C1=O [Example 246, 4-(6-chloro-7-fluoro-1-(2-methyl-4-(trifluoromethoxy)phenyl)-4-oxo-1,4-dihydroquinazolin-3(2H)-yl)-3-methylpyridine 1-oxide]
≤ 100 |  | Cc1c[n+]([O-])ccc1N1CN(c2ccc(OC(F)(F)F)cc2C)c2ccc(C(F)(F)F)cc2C1=O [Example 256, 3-methyl-4-(1-(2-methyl-4-(trifluoromethoxy)phenyl)-4-oxo-6-(trifluoromethyl)-1,4-dihydroquinazolin-3(2H)-yl)pyridine 1-oxide]
126 to 631 |  | Cc1cc(F)ccc1N1CN(C2CCC(=O)NC2)C(=O)c2ccc(C(F)(F)F)cc21 (stereo not shown) [Example 268]
≤ 100 |  | CC1=C(N2CN(c3ccc(F)cc3C)c3cc(C(F)(F)F)ccc3C2=O)CCC(=O)N1 [Example 269, 1-(4-fluoro-2-methylphenyl)-3-(2-methyl-6-oxo-1,4,5,6-tetrahydropyridin-3-yl)-7-(trifluoromethyl)-2,3-dihydroquinazolin-4(1H)-one]
≤ 100 |  | Cc1[nH]c(=O)ccc1N1CN([C@H]2CCCC[C@@H]2C)c2cc(C(F)(F)F)ccc2C1=O [Example 279, 3-(2-Methyl-6-oxo-1,6-dihydropyridin-3-yl)-1-((1S,2S)-2-methylcyclohexyl)-7-(trifluoromethyl)-2,3-dihydroquinazolin-4(1H)-one]
126 to 631 |  | Cc1[nH]c(=O)ccc1N1CN([C@H]2CCOC[C@H]2C)c2cc(C(F)(F)F)ccc2C1=O [Example 281, 3-(2-Methyl-6-oxo-1,6-dihydropyridin-3-yl)-1-((3S,4S)-3-methyltetrahydro-2H-pyran-4-yl)-7-(trifluoromethyl)-2,3-dihydroquinazolin-4(1H)-one]
794 to 7940 |  | Cc1cc(F)ccc1N1CN([C@H]2CCC(=O)N[C@H]2C)C(=O)c2ccc(C(F)(F)F)cc21 [Example 287, 1-(4-Fluoro-2-methylphenyl)-3-((2S,3S)-2-methyl-6-oxopiperidin-3-yl)-7-(trifluoromethyl)-2,3-dihydroquinazolin-4(1H)-one]
126 to 631 |  | Cc1cc(F)ccc1N1CN([C@@H]2CCC(=O)N[C@@H]2C)C(=O)c2ccc(C(F)(F)F)cc21 [Example 288, 1-(4-Fluoro-2-methylphenyl)-3-((2R,3R)-2-methyl-6-oxopiperidin-3-yl)-7-(trifluoromethyl)-2,3-dihydroquinazolin-4(1H)-one]
